Measured values reported in US20210393645A1, “TREATMENT FOR PROGRESSIVE MULTIPLE SCLEROSIS” (UTI LIMITED PARTNERSHIP, priority 2016, published 2021).
Counter-ions that a name gives are not always drawn.

Columns and labels:
[1] = tested on: Ifng, Tnfa, Il-17 and Ccl2 transcripts; assay: RT-PCR of inflammatory transcripts in lumbar spinal cord of EAE mice; type: in vivo, mouse; conditions: 25 mg/kg IP from day 0, sacrifice day 15
Procedure: Lumbar spinal cords were harvested, snap frozen in liquid nitrogen and stored in -80° C. Samples were homogenized in 1 ml Trizol followed by the addition of 200 μI chloroform. […] RNA was extracted using the RNeasy Mini Kit according to the manufacturer's instruction (Qiagen). RNA concentrations were measured using a Nanodrop (Thermo Fisher Scientific). cDNA preparation was performed using the RT2 First Strand kit (Qiagen) with 1μg of RNA according to the manufacturer's instructions. Real time PCR was performed using the QuantStudio 6 Flex (Applied Biosystems by Life Technologies) with FAST SYBR Green and primers for Gapdh (Qiagen) as housekeeping gene, lfn-γ (Qiagen, QT01038821), Tnfa (Qiagen, QT00104006), II-17 (SABiosciences, PPM03023A-200) and CcI2 (Qiagen, QT00167832). Relative expression was calculated using the ΔΔCT method with Gapdh as housekeeping gene. Data were normalized to gene expression in naïve mice.

T-lymphocytes = assay: Cell cycle analysis of activated splenocytes by flow cytometry (propidium iodide); type: cell-based, mouse
Procedure: Two days after activation and drug treatment splenocytes were harvested, washed with PBS followed by resuspension in PBS with 2% FBS. Cell cycle analysis was performed taking advantage of propidium iodide staining (50 μg/ml) using an established protocol (Besson and Yong, 2000). Cells were washed in cold PBS and resuspended in PI/Triton X-100 staining solution (10 ml 0.1% (v/v) Triton X-100 in PBS with 2 mg DNAse-free RNAse A and 0.4 ml of 500 μg/ml PI), followed by incubation at 4° C. for 30 min. Stained cells were analyzed on a FACSCalibur™ with the software CellQuest™ (BD Biosciences). Cell cycle analysis was conducted using the software ModFit LT, version 3.3 (Verity Software House Inc.).
Cells were identified by gating into the lymphocyte population, followed by single cell gating to exclude doublets and aggregates. This was followed by identification of the G0/G1 population and processing with the software ModFit LT, version 3.3 (Verity Software House Inc.) to calculate the percentage of cells in different cell cycles.

human neurons [2] = assay: Mitochondrial damage to neurons induced by rotenone; type: cell-based; conditions: rotenone 10 μM, drug 10 μM
Procedure: Human neurons were isolated from brain tissues of therapeutically aborted 15-20 week old fetuses, in accordance with ethics approval of the University of Calgary ethics committee, after written informed consent of the pregnant donors. Neurons were isolated as previously described (Vecil et al., 2000) brain specimens were washed in phosphate buffered saline (PBS) to remove blood, followed by removal of meninges. […] Thereafter, the digestion was stopped by addition of 4 ml fetal calf serum (FCS). The solution was filtered through a 132 μm filter and centrifuged (three times, 1,200 rpm, 10 min). Cells were cultured in feeding medium of minimal essential medium (MEM) supplemented with 10% fetal bovine serum (FBS), 1 μM sodium pyruvate, 10 μM glutamine, 1× non-essential amino acids, 0.1% dextrose and 1% penicillin/streptomycin (all culture supplements from Invitrogen, Burlington, Canada). […] For experiments, the neuron-enriched cultures were retrypsinized and cells were plated in poly-L-ornithine pre-coated 96-well plates at a density of 100,000 cells/well in 100 μl of the complete medium supplemented with cytosine arabinoside. […] All conditions were performed in quadruplicates. A day later cells were fixed using 4% paraformaldehyde (PFA) and stored in PBS in 4° C.
The iron stock solution was prepared using 27.8 mg iron(II) sulfate heptahydrate (FeSO4) (Sigma-Aldrich, Oakville, Canada), 10 μl of 17.8M sulfuric acid and 10 ml deionized distilled water. After filtering with a 0.2 μm filter, FeSO4 was added to cells in a final concentration of 25-50 μM in a volume of 50 μl medium to the cells. Rotenone was dissolved in dimethyl sulfoxide (DMSO) and used in a final concentration of 10 μM.

microglia = conditions: shown previously; cited from earlier work
B-cells [3] = assay: Proliferation of activated B-cells (3H-thymidine); type: cell-based, human; conditions: BCR/anti-CD40L/IL-4 activation
Procedure: (§1) Venous blood from healthy volunteers was obtained and peripheral blood mononuclear cells (PBMCs) were isolated by Ficoll gradient centrifugation (1800 RPM, 30 min). From PBMCs, B-cells were isolated by positive selection with CD19 directed microbeads (Stemcell Technologies). Purity was assessed by FACS after staining for CD19 (Stemcell Technologies). Cells were plated in a concentration of 2.5×10^5 cells/well in X-VIVO™ medium (Lonza) supplemented with 1% penicillin/streptomycin and 1% Glutamax and treated with drugs for 1 h. […] Medium as well as respective drugs were re-added followed by application of ^3H-thymidine in a concentration of 1 μCi per well to investigate proliferation.

human neurons [4] = assay: Live cell imaging of propidium iodide positive neurons challenged with FeSO4; type: cell-based; conditions: FeSO4 50 μM, pre-treatment 1 h
Procedure: Neurons were prepared as described above. Directly after the addition of FeSO4 to healthy neurons, the live cell-permeant Hoechst 33342 (1:2 diluted in AIM-V medium, nuclear blue; ThermoFisher Scientific, Grand Island, NY, USA) and the live cell-impermeable propinium iodide (PI, 1:20 diluted in AIM-V medium) were added in a volume of 20 μI (Sigma-Aldrich). In compromised cells, PI could now diffuse across the plasma membrane. Live cell imaging was performed using the automated ImageXpress® imaging system under controlled environmental conditions (37° C. and 5% CO2). Images were taken from 9 sites per well at baseline and then every 30 min for 12h. After export with MetaXpress®, videos were edited with ImageJ (NIH) in a uniform manner. Nuclei were pseudo colored in cyan, PI-positive cells in red.
Live cell imaging over 12 h supported the neuroprotective effects of drugs. We selected indapamide and desipramine for live imaging studies.

C57BL/6 mice [5] = assay: Histological analyses of the spinal cord of EAE mice (HE/LFB, Iba1, Bielschowsky); type: in vivo, mouse; conditions: 25 mg/kg IP from day 0
Excerpt: Spinal cords and cerebella were removed. […] Cervical and lumbar cords were snap frozen.

C57BL/6 mice [6] = assay: MOG-EAE in C57BL/6 mice, clinical score; type: in vivo, mouse
T-cells = assay: Proliferation of T-lymphocytes (3H-thymidine) in anti-CD3/anti-CD28 activated splenocytes; type: cell-based, mouse; conditions: concentration response
B-cells [7] = assay: TNF-α release of activated B-cells (ELISA); type: cell-based, human; conditions: BCR/anti-CD40L/IL-4 activation
Procedure: as §1

[8] = 25 mg/kg IP from onset of clinical signs (day 13)

CN(C)CCCN1c2ccccc2CCc2ccc(Cl)cc21 [CLOMIPRAMINE HYDROCHLORIDE]
elevation of transcripts encoding Ifng, Tnfa, Il-17 and Ccl2 in spinal cord [1]: abrogated
concentration from which cell cycle arrest is seen (more cells in G1, less in S-phase) (T-lymphocytes): 2 µM
neurotoxicity by rotenone (mitochondrial damage) (human neurons [2]): trended towards a protective activity
microglia inhibitory activity (microglia): did not have microglia inhibitory activity
concentration from which proliferation of activated B-cells is reduced (B-cells [3]): 2 µM
number of PI-positive neurons in response to FeSO4 over 12 h (human neurons [4]): attenuated
axonal damage (Bielschowsky stain) (C57BL/6 mice [5]): significantly less axonal damage
histological score of the spinal cord (inflammation) (C57BL/6 mice [5]): 1.7
microglial activation (Iba1 staining) (C57BL/6 mice [5]): prevented microglial activation
manifestations of clinical signs (C57BL/6 mice [6]; 25 mg/kg IP from day 0 (day of MOG induction)): completely suppressed
delay of onset of clinical signs (C57BL/6 mice [6]; 25 mg/kg IP from day 5 after induction): 2 days
clinical disability of first relapse, days 14-20 (C57BL/6 mice [6]; [8]): attenuated the marked rise in clinical disability
second increase in clinical scores, days 42-50 (C57BL/6 mice [6]; [8]): prevented
severity of the second relapse (C57BL/6 mice [6]; 25 mg/kg IP from remission after first relapse (day 31)): did not affect the severity of the second relapse
concentration from which T-lymphocyte proliferation is significantly reduced (T-cells): 5 µM
concentration from which production of TNF-α of activated B-cells is reduced (B-cells [7]): 2 µM
